Read-outs that look alike come from different tables or passages of the source.
What was measured:
[1] = molecular target: T1, HIV-1 IN-CTD / full-length IN complex (Human immunodeficiency virus type 1 group M subtype B, UniProt P12497); test: HTRF-based CTD binding assay (His-tagged CTD-IN with FLAG-tagged full-length IN); type: biochemical; conditions: 200 nM of ALLINI
T1 construct: His-tagged CTD-IN and FLAG-tagged full-length IN proteins were mixed; made in house; host or cells: E. coli (stated for the full-length INs)
Source text: To detect in isolation the specific contribution of the IN-CTD to the ALLINI-induced IN multimer complex formation, we have modified our published HTRF-based assay (Fig. 3, A and B). In this new analytical assay, anti-His6-XL665 and anti-FLAG-EuCryptate antibodies allow the detection of fluorescence energy transfer only when FLAG-tagged full-length IN protein tightly interacts with a His-tagged IN-CTD construct. Mixing of the proteins and without compound addition generated a small HTRF signal (Fig. 3C, dimethyl sulfoxide [DMSO]) indicating a weak interaction between the full-length IN and the IN-CTD construct. Strikingly, the addition of ALLINI to the assay promoted a significant increase of HTRF signals proportional to the IN multimerization properties of the compound.
Figure 3 C-terminal domain (CTD) contribution to the ALLINI-induced IN multimer formation.A, schematic of the standard HTRF-based IN multimerization assay. […] C, HTRF signal intensities recorded after the addition of 200 nM of ALLINI to a mixture of Flag tagged full-length IN and His-tagged CTD domain proteins as described in the Methods section. ALLINI, allosteric IN inhibitors; HTRF, homogeneous time resolved fluorescence; IN, integrase.
The CTD-IN protein was generated and purified using a published method ([40]). […] The HTRF binding signal between proteins was recorded using a PerkinElmer EnSpire multimode plate reader.

[2] = molecular target: T2, HIV-1 IN (full-length, His-tagged and FLAG-tagged) (Human immunodeficiency virus type 1 group M subtype B, UniProt P12497); test: HTRF-based IN multimerization assay; type: biochemical; conditions: average with SD of three independent experiments, read-out: In vitro IN multimerization EC50
T2 construct: recombinant proteins 6xHis-tagged and FLAG-tagged full-length INs were expressed in E. coli; made in house; host or cells: E. coli
Experimental: For biochemical studies, recombinant proteins 6xHis-tagged and FLAG-tagged full-length INs were expressed in E. coli and purified by column chromatography as previously described ([39]). The HTRF-based assay used to monitor inhibitor-induced aberrant multimerization of IN was performed as previously reported ([15], [19]). Briefly, two separate preparations of His-tagged and FLAG-tagged IN proteins were mixed in presence of increasing concentration of the test compounds and incubated for 2.5 h at room temperature. Anti-His6-XL665 and anti-FLAG-EuCryptate antibodies (Cisbio, Inc) were then added to the reaction and incubated at room temperature for 3 h.

noninfected cells = test: CyQUANT XTT Cell Viability cytotoxicity assay; type: cell-based
[3] = test system: HIV-1 virions (viral core density); test: Sucrose density gradient fractionation of detergent-lysed virions (p24 distribution); type: cell-based; conditions: 1 μM during viral production, versus DMSO; fractions 16–22
Source text: We and others have previously observed how ALLINIs interfere with proper virus particle maturation and yield noninfectious particles with eccentrically positioned RNPs. This mislocalization of the RNP to a position located between the low density empty capsid (CA) core and the particle membrane in mature virions has been observed using electron microscopy ([17], [31], [32]). The buoyant sucrose gradient technique that measure the relative density of the viral core of mature virions has also been validated as an effective approach to characterize this mislocalization of the RNP ([17], [33], [34]). […] The CA core density was then detected by measuring the HIV-1 CA (p24) content of each sucrose fraction.
For sucrose density gradient fractionation ([17], [33], [34]), cell-free virions produced from HEK293T cells transfected with pNL4-3 in the absence or presence of indicated concentration of ALLINI were concentrated by ultracentrifugation over a 25% sucrose cushion, pelleted virions were lysed with 0.5% Triton X-100 and were ultracentrifuged through a 20% to 70% (wt/vol) linear sucrose density gradient at 28,500 rpm for 16 h at 4C in SW40 rotor (Beckman). […] The relative distribution of HIV-1 capsid was determined by quantifying the Western blot p24 signal. […]

HIV-1 = test system: HIV-1
Experimental: For early stage experiments, viral infectivity of target cells was measured in the presence of increasing concentrations of inhibitors. For late stage, producer cells were transfected in the presence of increasing concentrations of inhibitors, cell-free virions were harvested at 48 h, and the amounts of viral particles produced were measured by p24 concentration essay. Subsequently, the infectivity of these progeny virions was examined without any additional inhibitor being added to the target cells. […] For full viral cycle experiments, the same inhibitor concentrations were added in the producer cells and the target cells ([31]).
The EC50 values were determined in single replication cycle as described previously ([17]). […] The virus supernatants were collected 24 h after drug treatment, and p24 concentrations were determined by HIV-1 Gag p24 ELISA (ZeptoMetrix) following manufacturer’s protocol. The target cells were then infected with HIV-1 virions equivalent to 4 ng of HIV-1 p24, in the absence or presence of indicated concentrations of drugs. To measure EC50 values during the early replication stage, DMSO or the inhibitor was added to the target cells 60 min before infection. The cells were cultured for 48 h, and the cell extracts were prepared using reporter lysis buffer (Promega). Luciferase activity was determined using a commercially available kit (Promega). The cytotoxicity assays were performed on noninfected cells using the commercially available CyQUANT XTT Cell Viability Assay (Invitrogen, Inc) by following the manufacturer protocol. The dose–response curves were fitted with a sigmoidal dose–response equation with Hill slope to determine the compound IC50 and CC50 using Origin software (v9.7).

Row | Compound | HTRF signal intensity, CTD / full-length IN complex [1] | EC50 [2] | CC50 (noninfected cells) | Effect on HIV-1 capsid (p24) distribution in sucrose density gradient fractions [3] | Fold improvement of overall antiviral IC50 (HIV-1) | Fold increase of PSI (HIV-1) | PSI (phase specificity index) (HIV-1) | IC50 (HIV-1; read-out: Early IC50) | IC50 (HIV-1; read-out: Full IC50) | IC50 (HIV-1; read-out: Late IC50)
1 | COc1ccccc1-c1ccc2c(-c3ccc4c(c3)OCCO4)c(C(OC(C)(C)C)C(=O)O)c(C)nc2c1 (stereo not shown) [JDH-2110] | higher HTRF than NGJ9002 | 40 ± 10 nM | > 100000 nM | reduction of CA signal in high-density fractions | about 30 fold | 7 fold | 465 | 9300 ± 500 nM | 30 ± 10 nM | 20 ± 10 nM
2 | Cc1nc2ccccc2c(-c2ccc3c(c2)OCCO3)c1C(OC(C)(C)C)C(=O)O (stereo not shown) [NGJ-9002] | – | 110 ± 10 nM | > 100000 nM | – | – | – | 64 | 42000 ± 3000 nM | 830 ± 50 nM | 660 ± 30 nM

From publication PMC7949159, “Optimized binding of substituted quinoline ALLINIs within the HIV-1 integrase oligomer” (The Journal of Biological Chemistry, 2021)
